Measured values reported in patent US9896438B2, “2,2,2-trifluoroethyl-thiadiazines” (Hoffmann-La Roche Inc., priority 2014, dated 2018).
pIC50: −log10 of the molar value. Where a name gives a salt, the structure may show the parent alone.

Molecular target: T1, BACE1 (Homo sapiens, UniProt P56817)
T1 construct: endogenous in cells; host or cells: HEK293 APP cells
Test: Cellular Aβ-lowering assay (Abeta 40 AlphaLISA in HEK293 APP cells)
Type: cell-based
Details: 18-20 hrs incubation, Aβ 40 in culture supernatants by AlphaLISA
Description: Cellular Aβ-Lowering Assay:
The Abeta 40 AlphaLISA Assay can be used. The HEK293 APP cells were seeded in 96 well Microtiter plates in cell culture medium (Iscove's, plus 10% (v/v) fetal bovine serum, penicillin/streptomycin) to about 80% confluency and the compounds were added at a 3× concentration in ⅓ volume of culture medium (final DMSO concentration was kept at 1% v/v). After 18-20 hrs incubation at 37° C. and 5% CO2 in a humidified incubator, the culture supernatants were harvested for the determination of Aβ 40 concentrations using Perkin-Elmer Human Amyloid beta 1-40 (high specificity) Kit (Cat# AL275C).
In a Perkin-Elmer White Optiplate-384 (Cat#6007290), 2 ul culture supernatants were combined with 2 μl of a 10× AlphaLISA Anti-hAβAcceptor beads+Biotinylated Antibody Anti-Aβ 1-40 Mix (50 μg/mL/5 nM). After 1 hour room temperature incubation, 16 μl of a 1.25× preparation of Streptavidin (SA) Donor beads (25 μg/mL) were added and incubated for 30 minutes in the Dark. Light Emission at 615 nm was then recorded using En Vision-Alpha Reader. Levels of Aβ 40 in the culture supernatants were calculated as percentage of maximum signal (cells treated with 1% DMSO without inhibitor). The IC50 values were calculated using the Excel XLfit software.

T1 sequence (P56817 46-501): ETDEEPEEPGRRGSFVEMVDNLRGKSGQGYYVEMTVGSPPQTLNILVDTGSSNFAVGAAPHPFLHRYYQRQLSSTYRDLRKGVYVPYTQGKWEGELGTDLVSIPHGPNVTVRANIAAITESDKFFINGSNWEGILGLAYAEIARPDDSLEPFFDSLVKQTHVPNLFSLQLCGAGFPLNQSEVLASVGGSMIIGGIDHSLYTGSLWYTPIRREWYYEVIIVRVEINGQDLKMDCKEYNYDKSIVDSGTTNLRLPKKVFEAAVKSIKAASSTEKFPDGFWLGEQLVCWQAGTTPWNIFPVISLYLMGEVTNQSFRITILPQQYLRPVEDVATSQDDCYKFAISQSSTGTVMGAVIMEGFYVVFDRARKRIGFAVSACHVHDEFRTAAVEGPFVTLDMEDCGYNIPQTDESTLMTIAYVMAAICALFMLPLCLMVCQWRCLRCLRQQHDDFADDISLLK

SMILES | pIC50
Cc1cc(C#N)cnc1C(=O)Nc1ccc(F)c([C@]2(C)C[S@@](=O)(=NCC(F)(F)F)N(C)C(N)=N2)n1 [Example 3, N-[6-[(1R,5R)-3-amino-2,5-dimethyl-1-oxo-1-(2,2,2-trifluoroethylimino)-6H-1,2,4-thiadiazin-5-yl]-5-fluoro-2-pyridyl]-5-cyano-3-methyl-pyridine-2-carboxamide 2,2,2-trifluoroacetic Acid Salt] | 9.00
CN1C(N)=N[C@](C)(c2nc(NC(=O)c3ccc(C#N)cn3)ccc2F)C[S@@]1(=O)=NCC(F)(F)F [Example 4, N-[6-[(1R,5R)-3-amino-2,5-dimethyl-1-oxo-1-(2,2,2-trifluoroethylimino)-6H-1,2,4-thiadiazin-5-yl]-5-fluoro-2-pyridyl]-5-cyano-pyridine-2-carboxamide 2,2,2-trifluoroacetic Acid Salt] | 8.57
Cc1cc(F)cnc1C(=O)Nc1ccc(F)c([C@]2(C)C[S@@](=O)(=NCC(F)(F)F)N(C)C(N)=N2)n1 [Example 5, N-[6-[(1R,5R)-3-amino-2,5-dimethyl-1-oxo-1-(2,2,2-trifluoroethylimino)-6H-1,2,4-thiadiazin-5-yl]-5-fluoropyridin-2-yl]-5-fluoro-3-methylpyridine-2-carboxamide 2,2,2-trifluoroacetic Acid Salt] | 7.86
CN1C(N)=N[C@](C)(c2nc(NC(=O)c3ccc(OCF)cn3)ccc2F)C[S@@]1(=O)=NCC(F)(F)F [Example 6, N-[6-[(1R,5R)-3-amino-2,5-dimethyl-1-oxo-1-(2,2,2-trifluoroethylimino)-6H-1,2,4-thiadiazin-5-yl]-5-fluoropyridin-2-yl]-5-(fluoromethoxy)pyridine-2-carboxamide 2,2,2-trifluoroacetic Acid Salt] | 8.42
CC#CCOc1cnc(C(=O)Nc2ccc(F)c([C@]3(C)C[S@@](=O)(=NCC(F)(F)F)N(C)C(N)=N3)n2)cn1 [Example 7, N-[6-[(1R,5R)-3-amino-2,5-dimethyl-1-oxo-1-(2,2,2-trifluoroethylimino)-6H-1,2,4-thiadiazin-5-yl]-5-fluoropyridin-2-yl]-5-but-2-ynoxypyrazine-2-carboxamide; 2,2,2-trifluoroacetic Acid] | 9.13
COc1cnc(C(=O)Nc2ccc(F)c([C@]3(C)C[S@@](=O)(=NCC(F)(F)F)N(C)C(N)=N3)n2)cn1 [Example 8, N-[6-[(1R,5R)-3-amino-2,5-dimethyl-1-oxo-1-(2,2,2-trifluoroethylimino)-6H-1,2,4-thiadiazin-5-yl]-5-fluoropyridin-2-yl]-5-methoxypyrazine-2-carboxamide 2,2,2-trifluoroacetic Acid Salt] | 7.99
CN1C(N)=N[C@](C)(c2nc(NC(=O)c3ccc(OCC(F)(F)F)cn3)ccc2F)C[S@@]1(=O)=NCC(F)(F)F [Example 9, N-[6-[(1R,5R)-3-amino-2,5-dimethyl-1-oxo-1-(2,2,2-trifluoroethylimino)-6H-1,2,4-thiadiazin-5-yl]-5-fluoropyridin-2-yl]-5-(2,2,2-trifluoroethoxy)pyridine-2-carboxamide 2,2,2-trifluoroacetic Acid Salt] | 7.30
CN=S1(=O)CC(C)(c2nc(NC(=O)c3ncc(C#N)cc3C)ccc2F)N=C(N)N1CC(F)(F)F (stereo not drawn) [Example 13, N-[6-[3-amino-5-methyl-1-methylimino-1-oxo-2-(2,2,2-trifluoroethyl)-6H-1,2,4-thiadiazin-5-yl]-5-fluoropyridin-2-yl]-5-cyano-3-methylpyridine-2-carboxamide; 2,2,2-trifluoroacetic Acid] | 6.87
CN=S1(=O)C[C@@](C)(c2nc(NC(=O)c3ncc(C#N)cc3C)ccc2F)N=C(N)N1CC(F)(F)F (stereo partly drawn) [Example 15, N-[6-[(5R)-3-amino-5-methyl-1-methylimino-1-oxo-2-(2,2,2-trifluoroethyl)-6H-1,2,4-thiadiazin-5-yl]-5-fluoropyridin-2-yl]-5-cyano-3-methylpyridine-2-carboxamide; 2,2,2-trifluoroacetic acid] | 9.01
CN=S1(=O)C[C@@](C)(c2nc(NC(=O)c3ncc(C#N)cc3C)ccc2F)N=C(N)N1CC(F)(F)F (stereo partly drawn) [Example 16, N-[6-[(5R)-3-amino-5-methyl-1-methylimino-1-oxo-2-(2,2,2-trifluoroethyl)-6H-1,2,4-thiadiazin-5-yl]-5-fluoropyridin-2-yl]-5-cyano-3-methylpyridine-2-carboxamide; 2,2,2-trifluoroacetic Acid] | 9.23
CN=S1(=O)C[C@@](C)(c2nc(NC(=O)c3ncc(C#N)cc3Cl)ccc2F)N=C(N)N1CC(F)(F)F (stereo partly drawn) [Example 17, N-(6-((5R)-3-amino-5-methyl-1-(methylimino)-1-oxido-2-(2,2,2-trifluoroethyl)-5,6-dihydro-2H-1,2,4-thiadiazin-5-yl)-5-fluoropyridin-2-yl)-3-chloro-5-cyanopicolinamide] | 9.53
CN=S1(=O)C[C@@](C)(c2nc(NC(=O)c3ncc(F)cc3C)ccc2F)N=C(N)N1CC(F)(F)F (stereo partly drawn) [Example 18, N-[6-[(5R)-3-amino-5-methyl-1-methylimino-1-oxo-2-(2,2,2-trifluoroethyl)-6H-1,2,4-thiadiazin-5-yl]-5-fluoropyridin-2-yl]-5-fluoro-3-methylpyridine-2-carboxamide; 2,2,2-trifluoroacetic acid] | 7.13
